{"source": "ChEMBL document CHEMBL5465560", "about": "“Selectivity Literature for EUbOPEN Chemogenomic Library” (2024)", "key": {"[1]": {"target": "Protein kinase C theta type (Homo sapiens, UniProt Q04759)", "sequence (Q04759 whole entry, looked up)": "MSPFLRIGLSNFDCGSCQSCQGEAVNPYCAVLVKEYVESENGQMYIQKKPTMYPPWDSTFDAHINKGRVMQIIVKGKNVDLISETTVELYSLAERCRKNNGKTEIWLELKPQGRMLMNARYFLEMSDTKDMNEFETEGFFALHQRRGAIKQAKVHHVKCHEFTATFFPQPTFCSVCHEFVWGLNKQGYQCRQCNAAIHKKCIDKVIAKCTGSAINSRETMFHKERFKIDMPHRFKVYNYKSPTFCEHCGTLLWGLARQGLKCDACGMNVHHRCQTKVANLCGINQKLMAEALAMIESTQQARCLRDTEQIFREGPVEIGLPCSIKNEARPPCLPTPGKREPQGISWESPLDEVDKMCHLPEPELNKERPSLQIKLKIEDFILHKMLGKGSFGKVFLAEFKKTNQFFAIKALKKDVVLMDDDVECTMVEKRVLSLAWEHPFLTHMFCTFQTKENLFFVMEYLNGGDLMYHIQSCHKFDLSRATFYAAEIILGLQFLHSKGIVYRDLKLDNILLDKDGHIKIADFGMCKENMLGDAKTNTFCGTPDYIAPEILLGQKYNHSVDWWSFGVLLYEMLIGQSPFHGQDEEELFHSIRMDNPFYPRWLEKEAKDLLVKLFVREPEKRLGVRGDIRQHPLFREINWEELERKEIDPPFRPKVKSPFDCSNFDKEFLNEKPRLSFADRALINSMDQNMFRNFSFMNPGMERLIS", "experiment": "Selectivity interaction (KinomeScan (DiscoverX)) EUB0000092b PRKCQ", "conditions": "at 10 µM"}, "[2]": {"target": "Serine/threonine-protein kinase PLK3 (Homo sapiens, UniProt Q9H4B4)", "sequence (Q9H4B4 whole entry, looked up)": "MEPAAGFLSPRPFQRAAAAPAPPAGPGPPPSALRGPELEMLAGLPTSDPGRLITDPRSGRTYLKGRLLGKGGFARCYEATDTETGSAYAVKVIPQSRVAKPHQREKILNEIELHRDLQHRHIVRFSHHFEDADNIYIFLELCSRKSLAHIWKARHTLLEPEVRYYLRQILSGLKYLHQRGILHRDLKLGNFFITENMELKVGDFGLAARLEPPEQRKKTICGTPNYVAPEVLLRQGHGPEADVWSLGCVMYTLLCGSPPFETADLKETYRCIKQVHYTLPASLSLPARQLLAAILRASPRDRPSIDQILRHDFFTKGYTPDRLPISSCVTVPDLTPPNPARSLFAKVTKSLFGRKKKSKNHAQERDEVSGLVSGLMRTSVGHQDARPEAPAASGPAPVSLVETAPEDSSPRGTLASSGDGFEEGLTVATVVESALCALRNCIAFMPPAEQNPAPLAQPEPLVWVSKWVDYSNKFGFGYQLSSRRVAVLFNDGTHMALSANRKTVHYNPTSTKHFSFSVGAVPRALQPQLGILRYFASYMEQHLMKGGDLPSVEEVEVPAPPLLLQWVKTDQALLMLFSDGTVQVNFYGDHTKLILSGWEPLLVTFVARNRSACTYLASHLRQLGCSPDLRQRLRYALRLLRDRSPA", "experiment": "Selectivity interaction (ProQinase) EUB0000171b PLK3"}, "[3]": {"target": "T1, Serine/threonine-protein kinase TAO3 (Homo sapiens) (UniProt Q9H2K8)", "T1 sequence (whole entry)": "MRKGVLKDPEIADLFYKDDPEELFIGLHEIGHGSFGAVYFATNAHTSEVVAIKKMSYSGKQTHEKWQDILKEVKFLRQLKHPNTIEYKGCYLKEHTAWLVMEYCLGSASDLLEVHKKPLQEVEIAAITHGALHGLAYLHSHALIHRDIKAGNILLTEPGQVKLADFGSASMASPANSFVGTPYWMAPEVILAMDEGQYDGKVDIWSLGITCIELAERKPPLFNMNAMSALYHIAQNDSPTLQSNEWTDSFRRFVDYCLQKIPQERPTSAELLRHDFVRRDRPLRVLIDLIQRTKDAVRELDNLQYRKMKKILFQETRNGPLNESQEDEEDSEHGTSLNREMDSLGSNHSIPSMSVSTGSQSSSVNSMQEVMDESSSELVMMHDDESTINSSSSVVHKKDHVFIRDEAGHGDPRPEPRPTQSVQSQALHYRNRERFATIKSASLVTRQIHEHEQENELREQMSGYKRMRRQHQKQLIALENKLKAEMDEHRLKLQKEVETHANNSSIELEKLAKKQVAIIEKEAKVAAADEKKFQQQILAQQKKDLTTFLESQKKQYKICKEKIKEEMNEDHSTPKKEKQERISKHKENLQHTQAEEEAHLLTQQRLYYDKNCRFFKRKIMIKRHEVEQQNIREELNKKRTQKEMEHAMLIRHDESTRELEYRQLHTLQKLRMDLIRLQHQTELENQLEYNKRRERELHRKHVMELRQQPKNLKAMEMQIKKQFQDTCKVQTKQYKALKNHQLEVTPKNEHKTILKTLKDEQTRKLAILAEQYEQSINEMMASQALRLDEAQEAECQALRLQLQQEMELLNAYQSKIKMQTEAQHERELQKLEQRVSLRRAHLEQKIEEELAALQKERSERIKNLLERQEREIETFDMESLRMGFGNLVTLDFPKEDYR", "experiment": "Selectivity interaction (ProQinase) EUB0000171b TAOK3"}, "[4]": {"target": "Mitogen-activated protein kinase 9 (Homo sapiens, UniProt P45984)", "sequence (P45984 whole entry, looked up)": "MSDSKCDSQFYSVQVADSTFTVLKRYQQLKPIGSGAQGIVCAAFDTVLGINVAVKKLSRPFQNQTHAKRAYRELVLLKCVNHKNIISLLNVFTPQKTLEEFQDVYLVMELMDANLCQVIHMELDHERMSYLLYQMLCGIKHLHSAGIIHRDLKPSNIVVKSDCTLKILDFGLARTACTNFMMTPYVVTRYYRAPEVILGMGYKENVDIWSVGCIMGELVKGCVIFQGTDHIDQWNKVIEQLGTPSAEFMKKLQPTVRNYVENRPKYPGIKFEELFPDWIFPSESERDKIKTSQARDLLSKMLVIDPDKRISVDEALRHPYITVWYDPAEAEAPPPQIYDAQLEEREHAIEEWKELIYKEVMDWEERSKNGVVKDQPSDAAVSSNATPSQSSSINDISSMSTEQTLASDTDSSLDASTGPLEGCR", "experiment": "Selectivity interaction (ActivX KiNativ screen (kinase selectivity in THP-1 cell lysates)) EUB0000639a MAPK9", "assay_type": "subcellular", "conditions": "lysate, at 1 µM"}, "[5]": {"target": "Casein kinase I isoform gamma-2 (Homo sapiens) (UniProt P78368)", "sequence (P78368 whole entry, looked up, canonical isoform)": "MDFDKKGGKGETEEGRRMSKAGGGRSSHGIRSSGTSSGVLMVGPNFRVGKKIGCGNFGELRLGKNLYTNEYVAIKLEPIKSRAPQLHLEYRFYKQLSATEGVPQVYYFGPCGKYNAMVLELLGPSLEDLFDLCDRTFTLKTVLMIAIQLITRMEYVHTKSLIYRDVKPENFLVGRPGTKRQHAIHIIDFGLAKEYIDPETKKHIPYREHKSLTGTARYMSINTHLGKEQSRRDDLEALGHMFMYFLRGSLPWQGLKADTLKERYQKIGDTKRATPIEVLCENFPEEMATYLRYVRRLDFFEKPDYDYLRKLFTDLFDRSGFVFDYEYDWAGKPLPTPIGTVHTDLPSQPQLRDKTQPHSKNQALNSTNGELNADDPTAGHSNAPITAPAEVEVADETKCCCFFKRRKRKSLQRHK", "experiment": "Selectivity interaction (ActivX KiNativ screen (kinase selectivity in THP-1 cell lysates)) EUB0000639a CSNK1G2", "assay_type": "subcellular", "conditions": "lysate"}, "[6]": {"target": "Vascular endothelial growth factor receptor 3 (Homo sapiens, UniProt P35916)", "sequence (P35916 whole entry)": "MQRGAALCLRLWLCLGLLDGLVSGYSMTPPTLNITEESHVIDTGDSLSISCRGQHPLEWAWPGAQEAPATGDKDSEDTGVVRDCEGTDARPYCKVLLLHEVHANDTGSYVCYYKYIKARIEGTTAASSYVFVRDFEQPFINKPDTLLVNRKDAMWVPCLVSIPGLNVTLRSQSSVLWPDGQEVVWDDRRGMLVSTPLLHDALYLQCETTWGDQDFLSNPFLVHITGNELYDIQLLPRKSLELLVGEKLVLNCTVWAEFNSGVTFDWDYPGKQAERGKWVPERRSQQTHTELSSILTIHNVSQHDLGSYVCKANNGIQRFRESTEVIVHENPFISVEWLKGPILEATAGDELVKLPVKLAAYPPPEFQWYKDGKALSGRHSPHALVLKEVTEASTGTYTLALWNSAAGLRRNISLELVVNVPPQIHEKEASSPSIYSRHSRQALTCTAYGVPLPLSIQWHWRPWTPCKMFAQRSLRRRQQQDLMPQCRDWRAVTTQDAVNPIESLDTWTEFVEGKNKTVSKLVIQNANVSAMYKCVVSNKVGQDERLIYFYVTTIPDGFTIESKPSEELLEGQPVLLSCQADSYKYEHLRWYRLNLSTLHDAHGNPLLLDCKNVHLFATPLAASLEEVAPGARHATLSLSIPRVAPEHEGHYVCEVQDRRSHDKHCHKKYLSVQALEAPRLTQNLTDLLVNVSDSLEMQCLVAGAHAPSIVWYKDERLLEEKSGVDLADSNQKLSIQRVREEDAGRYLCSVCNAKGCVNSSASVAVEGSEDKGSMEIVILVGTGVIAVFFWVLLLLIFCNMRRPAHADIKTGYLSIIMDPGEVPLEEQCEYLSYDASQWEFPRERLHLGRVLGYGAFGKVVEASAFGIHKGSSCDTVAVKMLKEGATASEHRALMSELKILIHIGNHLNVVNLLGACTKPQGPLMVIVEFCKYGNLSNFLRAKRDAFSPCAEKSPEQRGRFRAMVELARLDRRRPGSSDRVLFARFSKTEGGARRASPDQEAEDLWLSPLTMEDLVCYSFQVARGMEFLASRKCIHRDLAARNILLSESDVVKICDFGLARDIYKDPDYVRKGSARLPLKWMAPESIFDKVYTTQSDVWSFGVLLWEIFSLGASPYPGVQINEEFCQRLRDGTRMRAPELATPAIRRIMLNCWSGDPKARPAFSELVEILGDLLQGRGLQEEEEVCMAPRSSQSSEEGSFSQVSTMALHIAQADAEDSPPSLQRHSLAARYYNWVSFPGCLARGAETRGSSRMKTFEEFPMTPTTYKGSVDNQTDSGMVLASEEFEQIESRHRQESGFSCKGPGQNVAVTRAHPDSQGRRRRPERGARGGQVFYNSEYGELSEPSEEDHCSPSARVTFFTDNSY", "experiment": "Selectivity interaction (KinomeScan (DiscoverX)) EUB0000607a FLT4", "conditions": "at 10 µM"}, "[7]": {"target": "Angiopoietin-1 receptor (Homo sapiens) (UniProt Q02763)", "sequence (Q02763 whole entry)": "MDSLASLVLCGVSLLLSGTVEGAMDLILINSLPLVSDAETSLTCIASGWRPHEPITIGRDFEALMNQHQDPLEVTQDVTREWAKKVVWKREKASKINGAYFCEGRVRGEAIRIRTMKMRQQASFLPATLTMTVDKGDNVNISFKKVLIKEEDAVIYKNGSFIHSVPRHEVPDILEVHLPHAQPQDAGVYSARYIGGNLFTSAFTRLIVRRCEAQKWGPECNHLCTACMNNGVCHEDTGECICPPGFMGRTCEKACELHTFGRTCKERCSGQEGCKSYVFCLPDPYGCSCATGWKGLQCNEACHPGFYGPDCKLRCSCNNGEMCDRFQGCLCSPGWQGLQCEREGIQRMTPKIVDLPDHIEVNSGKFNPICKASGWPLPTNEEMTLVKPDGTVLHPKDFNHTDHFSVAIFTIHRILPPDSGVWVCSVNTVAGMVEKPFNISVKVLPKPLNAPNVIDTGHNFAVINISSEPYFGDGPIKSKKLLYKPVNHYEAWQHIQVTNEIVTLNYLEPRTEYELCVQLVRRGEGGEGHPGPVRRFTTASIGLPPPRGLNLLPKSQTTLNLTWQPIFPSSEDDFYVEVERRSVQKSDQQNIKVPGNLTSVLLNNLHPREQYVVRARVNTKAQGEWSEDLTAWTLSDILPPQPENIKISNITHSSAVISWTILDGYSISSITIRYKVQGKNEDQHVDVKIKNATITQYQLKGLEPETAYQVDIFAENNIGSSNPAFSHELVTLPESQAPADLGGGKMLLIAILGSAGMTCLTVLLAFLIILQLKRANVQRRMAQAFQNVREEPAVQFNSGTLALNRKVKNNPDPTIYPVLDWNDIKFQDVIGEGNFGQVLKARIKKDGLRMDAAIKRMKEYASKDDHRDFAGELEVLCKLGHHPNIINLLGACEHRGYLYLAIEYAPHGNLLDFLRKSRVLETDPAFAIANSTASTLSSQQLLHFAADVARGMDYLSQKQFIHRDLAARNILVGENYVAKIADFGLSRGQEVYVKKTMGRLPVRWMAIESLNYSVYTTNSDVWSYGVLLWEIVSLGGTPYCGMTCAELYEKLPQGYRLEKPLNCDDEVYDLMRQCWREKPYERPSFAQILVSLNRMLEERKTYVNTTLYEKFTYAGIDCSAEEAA", "experiment": "Selectivity interaction (KinomeScan (DiscoverX)) EUB0000607a TEK", "conditions": "at 10 µM"}, "[8]": {"target": "Death-associated protein kinase 2 (Homo sapiens) (UniProt Q9UIK4)", "sequence (Q9UIK4 whole entry, looked up)": "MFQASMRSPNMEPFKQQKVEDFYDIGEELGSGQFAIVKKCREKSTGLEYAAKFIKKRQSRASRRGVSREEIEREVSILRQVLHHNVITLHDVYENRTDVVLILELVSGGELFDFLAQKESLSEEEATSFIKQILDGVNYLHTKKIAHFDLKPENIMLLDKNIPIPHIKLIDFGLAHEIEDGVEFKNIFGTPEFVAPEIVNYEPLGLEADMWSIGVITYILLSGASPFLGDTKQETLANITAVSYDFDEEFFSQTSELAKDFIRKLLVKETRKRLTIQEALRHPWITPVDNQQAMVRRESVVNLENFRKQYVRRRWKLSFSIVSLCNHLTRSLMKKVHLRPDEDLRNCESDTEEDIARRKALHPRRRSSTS", "experiment": "Selectivity interaction (KinomeScan (DiscoverX)) EUB0001049a DAPK2", "conditions": "at 1 µM"}, "[9]": {"target": "T2, Serine/threonine-protein kinase DCLK2 (Homo sapiens) (UniProt Q8N568)", "T2 sequence (whole entry)": "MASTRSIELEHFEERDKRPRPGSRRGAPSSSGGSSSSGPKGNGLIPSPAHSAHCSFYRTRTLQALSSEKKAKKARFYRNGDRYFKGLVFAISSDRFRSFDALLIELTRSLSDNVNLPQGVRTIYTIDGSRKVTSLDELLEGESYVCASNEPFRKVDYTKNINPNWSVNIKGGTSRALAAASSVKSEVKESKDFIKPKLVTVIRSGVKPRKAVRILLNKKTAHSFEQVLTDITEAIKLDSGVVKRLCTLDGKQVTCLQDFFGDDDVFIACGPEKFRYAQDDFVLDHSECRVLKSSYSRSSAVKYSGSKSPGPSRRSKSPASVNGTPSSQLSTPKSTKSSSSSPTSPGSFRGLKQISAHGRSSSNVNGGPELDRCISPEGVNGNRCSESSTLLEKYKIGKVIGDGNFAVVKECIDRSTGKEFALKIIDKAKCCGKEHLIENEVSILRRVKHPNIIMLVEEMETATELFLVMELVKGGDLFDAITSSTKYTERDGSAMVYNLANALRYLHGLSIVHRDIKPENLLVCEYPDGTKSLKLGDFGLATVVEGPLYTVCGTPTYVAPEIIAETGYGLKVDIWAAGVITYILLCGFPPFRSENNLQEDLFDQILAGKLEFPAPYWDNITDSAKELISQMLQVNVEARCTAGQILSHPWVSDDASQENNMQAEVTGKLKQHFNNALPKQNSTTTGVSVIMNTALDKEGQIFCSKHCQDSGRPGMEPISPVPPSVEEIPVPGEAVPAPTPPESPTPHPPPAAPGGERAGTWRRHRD", "experiment": "Selectivity interaction (Ambit KINOMEscan and KiNATiv profiling in Jurkat cells) EUB0000090b DCLK2", "assay_type": "cell-based", "conditions": "at 1 µM"}, "[10]": {"target": "Mitogen-activated protein kinase kinase kinase 1 (Homo sapiens, UniProt Q13233)", "experiment": "Selectivity interaction (KinomeScan (DiscoverX)) EUB0001619a MAP3K1", "conditions": "at 1 µM"}}}
{"smiles": "CCC(=O)N1CCN(c2ccc(-n3c(=O)ccc4cnc5ccc(-c6cnc7ccccc7c6)cc5c43)cc2C(F)(F)F)CC1", "values": [{"measurement": "% of control", "setting": "[1]", "result": 91, "unit": "%"}]}
{"smiles": "C=CC(=O)Nc1cccc(C(=O)Nc2ccc(Nc3cc(-c4[nH]c(SC)nc4C)ccn3)cc2)c1", "values": [{"measurement": "% of control", "setting": "[2]; at 1 µM", "result": 103, "unit": "%"}, {"measurement": "% of control", "setting": "[2]; at 5 µM", "result": 75, "unit": "%"}, {"measurement": "% of control", "setting": "[3]; at 1 µM", "result": 95, "unit": "%"}, {"measurement": "% of control", "setting": "[3]; at 5 µM", "result": 72, "unit": "%"}]}
{"smiles": "CC[C@@H]1[C@H](F)C(=O)N[C@@H]1COc1nccc2cc(C(N)=O)c(OC)cc12", "note": "[ZIMLOVISERTIB]", "values": [{"measurement": "% of inhibition", "setting": "[4]", "result": -5.9, "unit": "%"}, {"measurement": "% of inhibition", "setting": "[5]; at 0.01 µM", "result": 4.3, "unit": "%"}, {"measurement": "% of inhibition", "setting": "[5]; at 0.04 µM", "result": 27.3, "unit": "%"}, {"measurement": "% of inhibition", "setting": "[5]; at 0.2 µM", "result": 67, "unit": "%"}, {"measurement": "% of inhibition", "setting": "[5]; at 1 µM", "result": 91, "unit": "%"}, {"measurement": "% of inhibition", "setting": "[5]; at 5 µM", "result": 96.9, "unit": "%"}]}
{"smiles": "CNC(=O)Nc1ccc(-c2nc(N3CC4CCC(C3)O4)c3cnn(C4CCC5(CC4)OCCO5)c3n2)cc1", "values": [{"measurement": "% of control", "setting": "[6]", "result": 88, "unit": "%"}, {"measurement": "% of control", "setting": "[7]", "result": 100, "unit": "%"}]}
{"smiles": "COc1cc(Nc2nc(C)cc(-c3cnn4nc(OC)ccc34)n2)cc(C(F)(F)F)c1", "values": [{"measurement": "% of control", "setting": "[8]", "result": 100, "unit": "%"}]}
{"smiles": "CN(C)C/C=C/C(=O)Nc1ccc(C(=O)N2CCCC(Nc3ncc(Cl)c(-c4c[nH]c5ccccc45)n3)C2)cc1", "note": "(stereo unspecified)", "values": [{"measurement": "% of control", "setting": "[9]", "result": 78, "unit": "%"}]}
{"smiles": "N#Cc1cccc(-c2c[nH]c3ncnc(N4CCOCC4)c23)c1", "values": [{"measurement": "% of control", "setting": "[10]", "result": 82, "unit": "%"}]}
